Results published in patent publication US9764031B2 (priority 2010, dated 2017).

Test system: IL-12
Parameters: species or system mice
Details: mouse, in vivo

In the case of CCOCc1nc2c(N)nc3ccccc3c2n1CC(C)(C)O [R848, Resiquimod], the “peak level of systemic IL-12, free agonist higher than NC-coupled agonist” value is reported as 30 fold.
